According to ChEMBL document CHEMBL5729561, “Compounds and uses thereof” (2023):

Test: On day 0 cells were seeded in 30 μL media into each well of 384-well cell culture plates. The seeding density was 8000 cells/well. On day 1, cells were treated with 30 nL DMSO or 30 nL of 3-fold serially DMSO-diluted compounds (10 points in duplicates with 1 μM as final top dose). Subsequently plates were incubated for 6 hours in a standard tissue culture incubator and equilibrated at room temperature for 15 minutes. Nanoluciferase activity was measured by adding 15 μL of freshly prepared Nano-Glo Luciferase Assay Reagent (Promega N1130), shaking the plates for 10 minutes and reading the bioluminescence using an EnVision reader.
Assay type: cell-based

| Compound | IC50 |
| --- | --- |
| COc1cc(-c2cn(C)c(=O)c3cnccc23)cc(OC)c1CN(C)CCc1cn(CCOCCOc2ccc3c(c2)C(=O)N(C2CCC(=O)NC2=O)C3=O)nn1 (stereo not given) | in the range around 55 nM |
| COc1cc(-c2cn(C)c(=O)c3cnccc23)cc(OC)c1CN1CC(OCc2cn(-c3ccc4c(c3)C(=O)N(C3CCC(=O)NC3=O)C4=O)nn2)C1 (stereo not given) | in the range around 55 nM |
| COc1cc(-c2cn(C)c(=O)c3cnccc23)cc(OC)c1CN1CCC(OC2CCN(C(=O)CCOCCOc3ccc4c(c3)C(=O)N(C3CCC(=O)NC3=O)C4=O)CC2)CC1 (stereo not given) | < 10 nM |
| COc1cc(-c2cn(C)c(=O)c3cnccc23)cc(OC)c1CN1CCC(OCc2cn(CCCOc3ccc4c(c3)C(=O)N(C3CCC(=O)NC3=O)C4=O)nn2)C1 (stereo not given) | in the range around 550 nM |
| COc1cc(-c2cn(C)c(=O)c3cnccc23)cc(OC)c1CN(C)CCc1cn(CCCCCOc2ccc3c(c2)C(=O)N(C2CCC(=O)NC2=O)C3=O)nn1 (stereo not given) | < 10 nM |
| COc1cc(-c2cn(C)c(=O)c3cnccc23)cc(OC)c1CN1CCCC(OCc2cn(CCOc3ccc4c(c3)C(=O)N(C3CCC(=O)NC3=O)C4=O)nn2)C1 (stereo not given) | in the range around 55 nM |
| COc1cc(-c2cn(C)c(=O)c3cnccc23)cc(OC)c1CN(C)C1CC2CC1CN2C(=O)CCOCCOc1ccc2c(c1)C(=O)N(C1CCC(=O)NC1=O)C2=O (stereo not given) | < 10 nM |
| COc1cc(-c2cn(C)c(=O)c3cnccc23)cc(OC)c1CN1CCCC(OCc2cn(CCCCCOc3ccc4c(c3)C(=O)N(C3CCC(=O)NC3=O)C4=O)nn2)C1 (stereo not given) | < 10 nM |
| COc1cc(-c2cn(C)c(=O)c3cnccc23)cc(OC)c1CN1CCC(OCc2cn(CCOCCOc3ccc4c(c3)C(=O)N(C3CCC(=O)NC3=O)C4=O)nn2)C1 (stereo not given) | in the range around 55 nM |
| COc1cc(-c2cn(C)c(=O)c3cnccc23)cc(OC)c1CN(C)CC1CC2(CCN(C(=O)CCOCCOc3ccc4c(c3)C(=O)N(C3CCC(=O)NC3=O)C4=O)CC2)O1 (stereo not given) | < 10 nM |
| COc1cc(-c2cn(C)c(=O)c3cnccc23)cc(OC)c1CN1CCC(OCc2cn(CCCCOc3ccc4c(c3)C(=O)N(C3CCC(=O)NC3=O)C4=O)nn2)C1 (stereo not given) | in the range around 55 nM |
| COc1cc(-c2cn(C)c(=O)c3cnccc23)cc(OC)c1CN1CCC(OCc2cn(CCCCOc3ccc4c(c3)C(=O)N(C3CCC(=O)NC3=O)C4=O)nn2)CC1 (stereo not given) | in the range around 55 nM |
| COc1cc(-c2cn(C)c(=O)c3cnccc23)cc(OC)c1CN(C)Cc1cn(CCOCCOc2ccc3c(c2)C(=O)N(C2CCC(=O)NC2=O)C3=O)nn1 (stereo not given) | in the range around 550 nM |
| COc1cc(-c2cn(C)c(=O)c3cnccc23)cc(OC)c1CN1CCC(OCc2cn(-c3ccc4c(c3)C(=O)N(C3CCC(=O)NC3=O)C4=O)nn2)C1 (stereo not given) | in the range around 55 nM |
| COc1cc(-c2cn(C)c(=O)c3cnccc23)cc(OC)c1CN1CC(OCc2cn(CCOCCOc3ccc4c(c3)C(=O)N(C3CCC(=O)NC3=O)C4=O)nn2)C1 (stereo not given) | in the range around 550 nM |
| COc1cc(-c2cn(C)c(=O)c3cnccc23)cc(OC)c1CN(C)C1CC2CN(C(=O)CCOCCOc3cccc4c3C(=O)N(C3CCC(=O)NC3=O)C4=O)CC2C1 (stereo not given) | in the range around 55 nM |
| COc1cc(-c2cn(C)c(=O)c3cnccc23)cc(OC)c1CN1CCCC(OCc2cn(-c3ccc4c(c3)C(=O)N(C3CCC(=O)NC3=O)C4=O)nn2)C1 (stereo not given) | in the range around 550 nM |
| COc1cc(-c2cn(C)c(=O)c3cnccc23)cc(OC)c1CN(C)CC1CC2(CCN(C(=O)CCOCCOc3cccc4c3C(=O)N(C3CCC(=O)NC3=O)C4=O)CC2)O1 (stereo not given) | in the range around 55 nM |
| COc1cc(-c2cn(C)c(=O)c3cnccc23)cc(OC)c1CN1CCC(OCc2cn(CCOCCOc3ccc4c(c3)C(=O)N(C3CCC(=O)NC3=O)C4=O)nn2)CC1 (stereo not given) | in the range around 55 nM |
| COc1cc(-c2cn(C)c(=O)c3cnccc23)cc(OC)c1CN1CCC2(C[C@@H]2NC(=O)CCOCCOc2ccc3c(c2)C(=O)N(C2CCC(=O)NC2=O)C3=O)C1 (stereo not given in full) | in the range around 55 nM |
| COc1cc(-c2cn(C)c(=O)c3cnccc23)cc(OC)c1CN1CCC(OC2CCN(C(=O)CCOCCOc3ccc4c(c3)C(=O)N(C3CCC(=O)NC3=O)C4=O)C2)CC1 (stereo not given) | < 10 nM |
| COc1cc(-c2cn(C)c(=O)c3cnccc23)cc(OC)c1CN1CC(OCc2cn(CCCCCOc3ccc4c(c3)C(=O)N(C3CCC(=O)NC3=O)C4=O)nn2)C1 (stereo not given) | in the range around 55 nM |
| COc1cc(-c2cn(C)c(=O)c3cnccc23)cc(OC)c1CN1CCC(C2CCN(C(=O)CCOCCOc3ccc4c(c3)C(=O)N(C3CCC(=O)NC3=O)C4=O)C2)CC1 (stereo not given) | < 10 nM |
| COc1cc(-c2cn(C)c(=O)c3cnccc23)cc(OC)c1CN(C)CC1CC2(C1)CN(C(=O)CCOCCOc1cccc3c1C(=O)N(C1CCC(=O)NC1=O)C3=O)C2 (stereo not given) | in the range around 55 nM |
| COc1cc(-c2cn(C)c(=O)c3cnccc23)cc(OC)c1CN(C)CC1CC12CCN(C(=O)CCOCCOc1ccc3c(c1)C(=O)N(C1CCC(=O)NC1=O)C3=O)CC2 (stereo not given) | in the range around 55 nM |

| Compound | IC50 |
| --- | --- |
| COc1cc(-c2cn(C)c(=O)c3cnccc23)cc(OC)c1CN1CCC(OCc2cn(CCCCCOc3ccc4c(c3)C(=O)N(C3CCC(=O)NC3=O)C4=O)nn2)CC1 (stereo not given) | < 10 nM |
| COc1cc(-c2cn(C)c(=O)c3cnccc23)cc(OC)c1CN(C)CCc1cn(-c2ccc3c(c2)C(=O)N(C2CCC(=O)NC2=O)C3=O)nn1 (stereo not given) | in the range around 55 nM |
| COc1cc(-c2cn(C)c(=O)c3cnccc23)cc(OC)c1CN1CCC12CCN(C(=O)CCOCCOc1ccc3c(c1)C(=O)N(C1CCC(=O)NC1=O)C3=O)C2 (stereo not given) | in the range around 550 nM |
| COc1cc(-c2cn(C)c(=O)c3cnccc23)cc(OC)c1CN1CCC(OCc2cn(CCOc3ccc4c(c3)C(=O)N(C3CCC(=O)NC3=O)C4=O)nn2)C1 (stereo not given) | in the range around 55 nM |
| COc1cc(-c2cn(C)c(=O)c3cnccc23)cc(OC)c1CN1CC(OCc2cn(CCCCOc3ccc4c(c3)C(=O)N(C3CCC(=O)NC3=O)C4=O)nn2)C1 (stereo not given) | in the range around 55 nM |
| COc1cc(-c2cn(C)c(=O)c3cnccc23)cc(OC)c1CN1CCC(OCc2cn(-c3ccc4c(c3)C(=O)N(C3CCC(=O)NC3=O)C4=O)nn2)CC1 (stereo not given) | in the range around 55 nM |
| COc1cc(-c2cn(C)c(=O)c3cnccc23)cc(OC)c1CN(C)CC1CC2(CCN(C(=O)CCOCCOc3ccc4c(c3)C(=O)N(C3CCC(=O)NC3=O)C4=O)CC2)C1 (stereo not given) | in the range around 55 nM |
| COc1cc(-c2cn(C)c(=O)c3cnccc23)cc(OC)c1CN(C)C1CC2CN(C(=O)CCOCCOc3ccc4c(c3)C(=O)N(C3CCC(=O)NC3=O)C4=O)CC2C1 (stereo not given) | in the range around 55 nM |
| COc1cc(-c2cn(C)c(=O)c3cnccc23)cc(OC)c1CN(C)C1CC2CC1CN2C(=O)CCOCCOc1cccc2c1C(=O)N(C1CCC(=O)NC1=O)C2=O (stereo not given) | in the range around 55 nM |
| COc1cc(-c2cn(C)c(=O)c3cnccc23)cc(OC)c1CN1CCC(OCc2cn(CCOCc3ccc4c(c3)C(=O)N(C3CCC(=O)NC3=O)C4=O)nn2)CC1 (stereo not given) | in the range around 55 nM |
| COc1cc(-c2cn(C)c(=O)c3cnccc23)cc(OC)c1CN1CCCC(OCc2cn(CCOCCOc3ccc4c(c3)C(=O)N(C3CCC(=O)NC3=O)C4=O)nn2)C1 (stereo not given) | in the range around 55 nM |
| COc1cc(-c2cn(C)c(=O)c3cnccc23)cc(OC)c1CN(C)CC1CC2(CCN(C(=O)CCOCCOc3ccc4c(c3)C(=O)N(C3CCC(=O)NC3=O)C4=O)CC2)CO1 (stereo not given) | < 10 nM |
| COc1cc(-c2cn(C)c(=O)c3cnccc23)cc(OC)c1CN(C)C1CCC2CN(C(=O)CCOCCOc3ccc4c(c3)C(=O)N(C3CCC(=O)NC3=O)C4=O)CC21 (stereo not given) | < 10 nM |
| COc1cc(-c2cn(C)c(=O)c3cnccc23)cc(OC)c1CN(C)Cc1cn(CCCCCOc2ccc3c(c2)C(=O)N(C2CCC(=O)NC2=O)C3=O)nn1 (stereo not given) | in the range around 55 nM |
| COc1cc(-c2cn(C)c(=O)c3cnccc23)cc(OC)c1CN1CCCC(OCc2cn(CCCOc3ccc4c(c3)C(=O)N(C3CCC(=O)NC3=O)C4=O)nn2)C1 (stereo not given) | in the range around 55 nM |
| COc1cc(-c2cn(C)c(=O)c3cnccc23)cc(OC)c1CN(C)CC1CC12CCN(C(=O)CCOCCOc1cccc3c1C(=O)N(C1CCC(=O)NC1=O)C3=O)CC2 (stereo not given) | in the range around 55 nM |
| COc1cc(-c2cn(C)c(=O)c3cnccc23)cc(OC)c1CN(C)C1CCC12CCN(C(=O)CCOCCOc1ccc3c(c1)C(=O)N(C1CCC(=O)NC1=O)C3=O)CC2 (stereo not given) | < 10 nM |
| COc1cc(-c2cn(C)c(=O)c3cnccc23)cc(OC)c1CN1CCC2(C[C@H]2NC(=O)CCOCCOc2ccc3c(c2)C(=O)N(C2CCC(=O)NC2=O)C3=O)C1 (stereo not given in full) | in the range around 550 nM |
| COc1cc(-c2cn(C)c(=O)c3cnccc23)cc(OC)c1CN1CCC(OCc2cn(CCOc3ccc4c(c3)C(=O)N(C3CCC(=O)NC3=O)C4=O)nn2)CC1 (stereo not given) | in the range around 55 nM |
| COc1cc(-c2cn(C)c(=O)c3cnccc23)cc(OC)c1CN1CC(OCc2cn(CCCOc3ccc4c(c3)C(=O)N(C3CCC(=O)NC3=O)C4=O)nn2)C1 (stereo not given) | in the range around 550 nM |
| COc1cc(-c2cn(C)c(=O)c3cnccc23)cc(OC)c1CN(C)CC1CC2(CCN(C(=O)CCOCCOc3cccc4c3C(=O)N(C3CCC(=O)NC3=O)C4=O)CC2)C1 (stereo not given) | in the range around 55 nM |
| COc1cc(-c2cn(C)c(=O)c3cnccc23)cc(OC)c1CN1CC2C1CCN2C(=O)CCOCCOc1ccc2c(c1)C(=O)N(C1CCC(=O)NC1=O)C2=O (stereo not given) | < 10 nM |
| COc1cc(-c2cn(C)c(=O)c3cnccc23)cc(OC)c1CN1CCC(OCc2cn(CCCCCOc3ccc4c(c3)C(=O)N(C3CCC(=O)NC3=O)C4=O)nn2)C1 (stereo not given) | < 10 nM |
| COc1cc(-c2cn(C)c(=O)c3cnccc23)cc(OC)c1CN(C)C1CCC2CN(C(=O)CCOCCOc3cccc4c3C(=O)N(C3CCC(=O)NC3=O)C4=O)CC21 (stereo not given) | in the range around 55 nM |
| COc1cc(-c2cn(C)c(=O)c3cnccc23)cc(OC)c1CN(C)CC1CC2(C1)CN(C(=O)CCOCCOc1ccc3c(c1)C(=O)N(C1CCC(=O)NC1=O)C3=O)C2 (stereo not given) | in the range around 550 nM |
